Results taken from patent US7081531B2, “Bridged bicyclic amine derivatives useful as CCR-3 receptor antagonists” (Roche Palo Alto LLC, priority 2003, dated 2006).

What was measured:
CCR-3 receptor = molecular target: T1, CCR-3 receptor (Homo sapiens, UniProt P51677); experiment: CCR-3 receptor binding assay, inhibition of 125I eotaxin binding to CCR-3 L1.2 transfectant cells; conditions: inhibition of 125I-eotaxin binding to CCR-3 L1.2 transfected cells, 1 hour at rt
T1 construct: expressed in transfected cells; host or cells: L1.2 (murine pre-beta lymphoma line) transfected with CCR-3
T1 sequence (P51677 1-355): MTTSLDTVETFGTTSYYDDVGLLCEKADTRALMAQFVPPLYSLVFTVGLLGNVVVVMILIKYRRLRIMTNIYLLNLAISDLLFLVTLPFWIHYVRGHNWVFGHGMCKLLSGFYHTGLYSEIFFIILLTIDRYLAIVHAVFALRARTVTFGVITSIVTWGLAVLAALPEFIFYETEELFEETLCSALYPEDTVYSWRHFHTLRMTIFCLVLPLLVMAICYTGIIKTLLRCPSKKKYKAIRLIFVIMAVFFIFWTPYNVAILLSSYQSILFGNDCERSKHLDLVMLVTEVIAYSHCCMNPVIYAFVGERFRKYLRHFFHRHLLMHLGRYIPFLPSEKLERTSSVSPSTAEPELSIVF
Method: CCR-3 Receptor Binding Assay—In Vitro
The CCR-3 antagonistic activity of the compounds of the invention was determined by their ability to inhibit the binding of ^125I eotaxin to CCR-3 L1.2 transfectant cells (see Ponath, P. D. et al., J. Exp. Med., 183:2437–48, (1996)).
The assay was performed in Costar 96-well polypropylene round bottom plates. Test compounds were dissolved in DMSO and then diluted with binding buffer (50 mM HEPES, 1 mM CaCl2, 5 mM MgCl2, 0.5% bovine serum albumin (BSA), 0.02% sodium azide, pH 7.24) such that the final DMSO concentration was 2%. 25 μl of the test solution or only buffer with DMSO (control samples) was added to each well, followed by the addition of 25 μl of ^125I-eotaxin ([…]) (NEX314, New England Nuclear, Boston, Mass.) and 1.5×10^5 of the CCR-3 L1.2 transfected cells in 25 μl binding buffer. The final reaction volume was 75 μl.
After incubating the reaction mixture for 1 hour at rt, the reaction was terminated by filtering the reaction mixture through a polyethylenimine-treated Packard Unifilter GF/C filter plate (Packard, Chicago, Ill.). The filters were washed four times with ice cold wash buffer containing 10 mm HEPES and 0.5 M sodium chloride (pH 7.2) and dried at 65° C. for approximately 10 minutes. 25 μl/well of Microscint-20® scintillation fluid (Packard) was added and the radioactivity retained on the filters was determined by using the Packard TopCount®
Compounds of this invention were active in this assay.

Row | SMILES | IC50 (CCR-3 receptor) [µM] | melting point [°C]
1 | Cc1c(CN2CC3CCC2CC3Cc2ccc(Cl)c(Cl)c2)c(=O)n(-c2ccccc2)n1C (stereo not shown) [Example 2, 4-[5-(3,4-Dichloro-benzyl)-2-aza-bicyclo[2.2.2]oct-2-ylmethyl]-1,5-dimethyl-2-phenyl-1,2-dihydro-pyrazol-3-one] | 0.331 | 
2 | Cc1c(CN2C3CCC2CC(Cc2ccc(Cl)c(Cl)c2)C3)c(=O)n(-c2ccccc2)n1C (stereo not shown) [Example 6, 4-[3-(3,4-dichloro-benzyl)-8-aza-bicyclo[3.2.1]oct-8-ylmethyl]-1,5-dimethyl-2-phenyl-1,2-dihydro-pyrazol-3-one] | 0.965 | 
3 | COc1cc(NC(=O)N[C@@H](CN2C3CCC2CC(Cc2ccc(Cl)cc2)C3)[C@@H](C)O)cc(OC)c1OC (stereo partly shown) [Example 7] | 0.0082 | 118 to 123
